According to PubChem BioAssay (NCI):
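Where inhibition never reached the appropriate level, the endpoint shown equals the highest concentration tested. Otherwise, values were interpolated linearly from a five-concentration, 48-hour dose response in 96-well plates. TGI marks complete inhibition of growth.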

How the values were obtained:
Assay in all cases: DTP human tumour cell line panel, 48 h
786-0 renal = test system: 786-0 renal
ACHN renal = test system: ACHN renal
BT-549 breast = test system: BT-549 breast
CAKI-1 renal = test system: CAKI-1 renal
HCC-2998 colon = test system: HCC-2998 colon
HL-60(TB) leukemia = test system: HL-60(TB) leukemia
HOP-92 NSCLC = test system: HOP-92 NSCLC
HS 578T breast = test system: HS 578T breast
MALME-3M melanoma = test system: MALME-3M melanoma
MDA-N = test system: MDA-N
NCI-H226 lung = test system: NCI-H226 lung
OVCAR-5 ovarian = test system: OVCAR-5 ovarian
PC-3 prostate = test system: PC-3 prostate
RPMI-8226 leukemia = test system: RPMI-8226 leukemia
SN12C renal = test system: SN12C renal
TK-10 renal = test system: TK-10 renal
UACC-257 melanoma = test system: UACC-257 melanoma
UACC-62 melanoma = test system: UACC-62 melanoma
A549 NSCLC = test system: A549 NSCLC
UO-31 renal = test system: UO-31 renal

SMILES | TGI (786-0 renal) [µM] | TGI (ACHN renal) [µM] | TGI (BT-549 breast) [µM] | TGI (CAKI-1 renal) [µM] | TGI (HCC-2998 colon) [µM] | TGI (HL-60(TB) leukemia) [µM] | TGI (HOP-92 NSCLC) [µM] | TGI (HS 578T breast) [µM] | TGI (MALME-3M melanoma) [µM] | TGI (MDA-N) [µM] | TGI (NCI-H226 lung) [µM] | TGI (OVCAR-5 ovarian) [µM] | TGI (PC-3 prostate) [µM] | TGI (RPMI-8226 leukemia) [µM] | TGI (SN12C renal) [µM] | TGI (TK-10 renal) [µM] | TGI (UACC-257 melanoma) [µM] | TGI (UACC-62 melanoma) [µM] | TGI (A549 NSCLC) [µM] | TGI (UO-31 renal) [µM]
O=c1cc(N2CCCC2)[nH]c(=O)n1-c1cccc(Cl)c1 | > 100 | > 100 | > 100 | > 100 | > 100 | > 100 | > 100 | > 100 | > 100 | > 100 | > 100 | > 100 | > 100 | > 100 | > 100 | > 100 | > 100 | > 100 | – | –
CCOC(=O)c1cc2c3ccn(Cc4ccccc4)c3c3c(C)[nH]oc3c2n1 | > 100 | > 100 | > 100 | > 100 | > 100 | > 100 | – | > 100 | > 100 | > 100 | > 100 | > 100 | > 100 | > 100 | > 100 | > 100 | > 100 | > 100 | > 100 | > 100
O=C(NC(Cc1ccccc1)(Cc1ccc(O)cn1)C(=O)O)c1ccccc1 (centres undefined) | > 100 | > 100 | > 100 | > 100 | > 100 | 68.2 | > 100 | > 100 | > 100 | > 100 | > 100 | > 100 | > 100 | > 100 | – | > 100 | > 100 | > 100 | > 100 | > 100
O=C(c1ccco1)N(C(=S)OCCOc1ccccc1)c1ccccc1 | 38.3 | 53.4 | 43.5 | 48.4 | 37.9 | 47.3 | 37.5 | > 100 | 40 | 33.9 | – | 41.1 | 57.8 | 47.2 | 39.1 | 55.2 | 37.4 | 32.7 | 90.2 | 35.5
Cn1c([C@H](C#N)c2ncccc2[N+](=O)[O-])nc2ccccc21 | > 100 | > 100 | > 100 | > 100 | > 100 | > 100 | > 100 | 75.1 | > 100 | > 100 | > 100 | > 100 | > 100 | > 100 | – | > 100 | > 100 | > 100 | > 100 | > 100
Nc1ccc(Cc2c(N)[nH]c(=O)[nH]c2=O)cc1 | > 100 | > 100 | > 100 | > 100 | > 100 | > 100 | > 100 | > 100 | > 100 | > 100 | > 100 | > 100 | > 100 | > 100 | > 100 | – | > 100 | > 100 | > 100 | > 100
Clc1ccc(-c2cc3nc4ccccc4nc3o2)cc1 | > 100 | > 100 | > 100 | > 100 | > 100 | > 100 | > 100 | > 100 | > 100 | > 100 | > 100 | > 100 | > 100 | > 100 | – | > 100 | > 100 | > 100 | > 100 | > 100
CO/C=C(/C(=O)OC)c1ccccc1COc1cccc(C(F)(F)F)c1 | > 100 | > 100 | > 100 | 53.9 | > 100 | 3.99 | 50.5 | > 100 | 29.4 | > 100 | 71.2 | > 100 | > 100 | 7.31 | > 100 | – | 21.3 | 42 | > 100 | 77
CCOC(=O)c1cn2c(n1)sc1cc(Cl)ccc12 | 26.4 | > 100 | > 100 | > 100 | > 100 | – | > 100 | > 100 | 99.1 | 12.6 | > 100 | > 100 | > 100 | > 100 | > 100 | > 100 | > 100 | > 100 | > 100 | > 100
O=C1c2ccccc2C(=O)N1CCCCNOCCCN1C(=O)c2ccccc2C1=O | > 100 | > 100 | > 100 | > 100 | > 100 | – | > 100 | > 100 | > 100 | > 100 | > 100 | > 100 | > 100 | > 100 | > 100 | > 100 | > 100 | > 100 | > 100 | > 100
